From patent US11952328B2, “Selective ship inhibitors for treating disease” (THE RESEARCH FOUNDATION FOR THE STATE UNIVERSITY OF NEW YORK, priority 2018, dated 2024)

Key:
CT26 = CT26 viability following in vitro treatment; format: cell-based, mice; conditions: in vitro 24 h; only 20 μM vs 0 μM adjusted p=0.0463, other concentrations N.S.
Experimental: FIG. 7A and FIG. 7B show CT26 (FIG. 7A) and MC-38 (FIG. 7B) viability following in vitro treatment with 3AC for 24 h at indicated doses. Relative viability is expressed as frequency compared to solvent only treated cells. Kill curve summarizes pooled data from three independent experiments using six replicate wells/concentration with mean±SEM indicated. BALB/C mice were challenged with subcutaneous injection of CT26 colon carcinoma cells in the right flank. Mice were treated with either 2 consecutive days of 3AC or vehicle control each week as in FIG. 4A. Tumor size at […] 28 days (FIG. 7C), and tumor weight on day 28 determined after dissection of tumor (FIG. 7E). […] C57BL/6 mice were challenged with subcutaneous injection of MC-38 colon carcinoma cells in the right flank. Mice were treated with either 2 consecutive days of SHIP inhibitor or vehicle control each week as in FIG. 4A. Tumor size at 14, 21 and 25 days (FIG. 7D), and tumor weight (FIG. 7F) on day 25 were determined after dissection of tumor. […] FIG. 7A (n=18 per group. One-way ANOVA with Dunnett's multiple comparisons. 0 μM vs. 20 μM Adjusted p value=0.0463. All other concentrations of SHIP inhibitor compared with solvent only N.S.). FIG. 7B (n=18 per group. One-way ANOVA with Dunnett's multiple comparisons. All concentrations of SHIP inhibitor compared with solvent only N.S.). […]

RMA-Rael cells = test: Overall survival of RMA-Rael tumor challenged hosts (Kaplan-Meier); format: in vivo, mice
Experimental: FIGS. 6A-6I show the survival of tumor bearing mice treated with a SHIP inhibitor. […] Hosts were treated on the day of tumor challenge and the following day as in FIG. 1. The 2-day treatment course was repeated each week for the duration of survival. […] Mice received either NK cell depleting, anti-NK1.1 antibody (PK136), or isotype control antibody prior to tumor challenge (5×10^5 RMA-Rael). The hosts received SHIP inhibitor two consecutive days each week until death. […] The hosts were treated on the day of tumor challenge and the following day as in FIG. 1. The 2-day treatment course was repeated each week for the duration of survival.
The most clinically relevant endpoint in any cancer therapy study is not a measured decrease in tumor burden, but instead, a significant increase in survival promoted by the treatment.
In order to further define 3AC′s capacity to control malignancy through immunomodulatory effects the capacity of 3AC to promote resistance of NSG, TcRa^−/− and NK cell depleted hosts to RMA-Rael tumor challenge was examined. As before, mice received treatment with 3AC or vehicle for two consecutive days each week followed by a five-day cessation of treatment to prevent disarming and/or exhaustion. This treatment strategy was continued indefinitely and survival was monitored (FIG. 6A). To confirm that, in addition to the chemotherapeutic effect documented in FIG. 5, 3AC-induced enhanced-NK and -T cell activity is important for the survival benefit following tumor challenge, NSG mice (mice deficient of all lymphocyte lineages) were challenged.
To determine if T cells are required for the 3AC-mediated survival benefit, the same expirement using TcRa^−/− hosts that lack a TcR-ab^+ T cell compartment was repeated. […] To directly test the requirement for an intact NK cell compartment for 3AC-mediated increased survival after tumor challenge, the experiment as described in FIG. 6A were repeated challenging C57BL/6 hosts that were first depleted of
NK cells. Here, prior to tumor challenge, hosts were injected with either NK cell depleting anti-NK1.1 antibody (C57BL/6-DNK) or with antibody isotype control (C57BL/6-iso) (FIG. 6B).
The SHIP1 inhibitor 3AC was then tested in a genetic model in which the molecular target, SHIP1, was absent in a key target population of T cells, which are required for protection in the RMA-Rael lymphoma challenge model. […] Thus, SHIP inhibitor protection after tumor challenge is lost when the T cell compartment lacks the molecular target (SHIP1) in T cells.
There are two paralogs of SHIP: SHIP1 which is expressed in a limited range of tissues including hematopoietic cells, and SHIP2 which is expressed by a wide array of cell types. To determine if SHIP2 may also play a role in host defense against malignancy as described above tumor bearing mice were treated with small-molecule inhibitors against SHIP2 as well. […] Stem Cells. (2015); 33: 848-858; Hoekstra, E. et al., Lipid phosphatase SHIP2 functions as oncogene in colorectal cancer by regulating PKB activation. Oncotarget. (2016) 7: 73525-73540). Like 3AC, pan-SHIP1/2 inhibitors such as K118 are also cytotoxic for RMA-Rael cells in vitro. The pan SHIP1/2 inhibitory compounds K118 and K149 were compared to the SHIP1 selective compound 3AC.
Simultaneous inhibition of both SHIP1and SHIP2 may be deleterious to the immune response promoted by 3AC. […] In the study, the SHIP1 selective inhibitor 3AC that provides for protection after RMA-Rael challenge was simulataneously co-administered.

CC(C)CCC[C@@H](C)[C@H]1CC[C@H]2[C@@H]3CCC4C[C@H](N)CC[C@]4(C)[C@H]3CC[C@]12C (stereo partly drawn) [Compound 3AC, 3-α-aminocholestane]
CT26 viability (direct killing) (CT26): resistant to direct killing
overall survival (RMA-Rael cells; 3AC-treated NK cell depleted C57BL/6 (anti-NK1.1) vs 3AC-treated isotype control hosts): significantly compromised survival
long-term survival (RMA-Rael cells; C57BL/6 hosts, 1×10^5 RMA-Rael, FIG. 6H): long-term survival in a subset of hosts
overall survival (protection) (RMA-Rael cells; C57BL/6 hosts, 1×10^5 RMA-Rael, FIG. 6H, vs vehicle): extended survival
overall survival (RMA-Rael cells; C57BL/6 hosts, 5×10^5 RMA-Rael, two consecutive days each week, five-day cessation, vs vehicle): significantly increased survival
overall survival (RMA-Rael cells; CD4CreSHIP flox/flox mice treated with 3AC vs vehicle-treated SHIP+/flox mice): comparable survival
median survival (RMA-Rael cells; NSG mice, pulsatile dosing, vs vehicle-treated NSG): very modest increase
overall survival (RMA-Rael cells; SHIP flox/flox mice treated with 3AC vs 3AC-treated CD4CreSHIP flox/flox and vehicle-treated SHIP+/flox): enhanced survival
overall survival (RMA-Rael cells; TcRa−/− hosts, pulsatile dosing, compared to 3AC treatment of C57BL/6 hosts): did not prolong survival
long term survival (RMA-Rael cells; subpopulation of 3AC treated C57BL/6 mice, pulsatile dosing, tumor uniformly lethal in vehicle mice): durable, long term survival without any evidence of tumor burden
